According to PubChem BioAssay AID1918956 (Molecular Pharmacology Branch, DTP, NCI, 2023):
“And” between values parts separate entries of the source, which are not always exact repeats. Equal values may be shown once.

System: OVCAR-5 complex spheroids, viability
Test: Anticancer human tumor OVCAR-5 cell line growth inhibition;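 also: spheroids exposed to agents for seven days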;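 as to viability, T/C: 100% = DMSO vehicle control wells viability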
Details: for viability, T/C: stronger effect = lower value
Outline: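 Drug combinations with the LSD1 inhibitor iadademstat tested on tumor cells co-cultured as spheroids with endothelial cells and mesenchymal stem cells. Concentrations descended in half-log increments from clinical Cmax or 10 microM.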

[1] = curve of first compound, second compound 0.1 µM
[2] = curve of first compound, second compound 0.316 µM
[3] = curve of first compound, second compound 1 µM
[4] = curve of first compound, second compound 3.16 µM
[5] = curve of first compound, second compound 10 µM
[6] = second compound 0.1 µM, first compound 0.00316 µM
[7] = second compound 0.1 µM, first compound 0.01 µM
[8] = second compound 0.1 µM, first compound 0.0316 µM
[9] = second compound 0.1 µM, first compound 0.1 µM
[10] = second compound 0.316 µM, first compound 0.00316 µM
[11] = second compound 0.316 µM, first compound 0.01 µM
[12] = second compound 0.316 µM, first compound 0.0316 µM
[13] = second compound 0.316 µM, first compound 0.1 µM
[14] = second compound 1 µM, first compound 0.00316 µM
[15] = second compound 1 µM, first compound 0.01 µM
[16] = second compound 1 µM, first compound 0.0316 µM
[17] = second compound 1 µM, first compound 0.1 µM
[18] = second compound 3.16 µM, first compound 0.00316 µM
[19] = second compound 3.16 µM, first compound 0.01 µM
[20] = second compound 3.16 µM, first compound 0.0316 µM
[21] = second compound 3.16 µM, first compound 0.1 µM
[22] = second compound 10 µM, first compound 0.00316 µM
[23] = second compound 10 µM, first compound 0.01 µM
[24] = second compound 10 µM, first compound 0.0316 µM
[25] = second compound 10 µM, first compound 0.1 µM
[26] = second compound 0.1 µM, first compound 0.000949 µM
[27] = second compound 0.1 µM, first compound 0.003 µM
[28] = second compound 0.1 µM, first compound 0.00949 µM
[29] = second compound 0.1 µM, first compound 0.03 µM
[30] = second compound 0.1 µM, first compound 0.0949 µM
[31] = second compound 0.1 µM, first compound 0.3 µM
[32] = second compound 0.316 µM, first compound 0.000949 µM
[33] = second compound 0.316 µM, first compound 0.003 µM
[34] = second compound 0.316 µM, first compound 0.00949 µM
[35] = second compound 0.316 µM, first compound 0.03 µM
[36] = second compound 0.316 µM, first compound 0.0949 µM
[37] = second compound 0.316 µM, first compound 0.3 µM
[38] = second compound 1 µM, first compound 0.000949 µM
[39] = second compound 1 µM, first compound 0.003 µM
[40] = second compound 1 µM, first compound 0.00949 µM
[41] = second compound 1 µM, first compound 0.03 µM
[42] = second compound 1 µM, first compound 0.0949 µM
[43] = second compound 1 µM, first compound 0.3 µM
[44] = second compound 3.16 µM, first compound 0.000949 µM
[45] = second compound 3.16 µM, first compound 0.003 µM
[46] = second compound 3.16 µM, first compound 0.00949 µM
[47] = second compound 3.16 µM, first compound 0.03 µM
[48] = second compound 3.16 µM, first compound 0.0949 µM
[49] = second compound 3.16 µM, first compound 0.3 µM
[50] = second compound 10 µM, first compound 0.000949 µM
[51] = second compound 10 µM, first compound 0.003 µM
[52] = second compound 10 µM, first compound 0.00949 µM
[53] = second compound 10 µM, first compound 0.03 µM
[54] = second compound 10 µM, first compound 0.0949 µM
[55] = second compound 10 µM, first compound 0.3 µM

## CC(C)CC(NC(=O)C(Cc1ccccc1)NC(=O)c1cnccn1)B(O)O (centres undefined) + NC1CC1c1ccc(-c2cccc(O)c2)cc1
[1]
  IC50: 7.35 nM
[2]
  IC50: 6.68 nM
[3]
  IC50: 6.31 nM
[4]
  IC50: 4.44 nM
[5]
  IC50: 4.52 nM
Second compound 0.1 µM, first compound 0.000316 µM
  viability, T/C: 111%
Second compound 0.1 µM, first compound 0.001 µM
  viability, T/C: 103%
[6]
  viability, T/C: 75.8%
[7]
  viability, T/C: 40.9%
[8]
  viability, T/C: 14.8%
[9]
  viability, T/C: 5.74%
Second compound 0.316 µM, first compound 0.000316 µM
  viability, T/C: 111%
Second compound 0.316 µM, first compound 0.001 µM
  viability, T/C: 98.8%
[10]
  viability, T/C: 74.6%
[11]
  viability, T/C: 37.5%
[12]
  viability, T/C: 10.7%
[13]
  viability, T/C: 3.96%
Second compound 1 µM, first compound 0.000316 µM
  viability, T/C: 100%
Second compound 1 µM, first compound 0.001 µM
  viability, T/C: 103%
[14]
  viability, T/C: 71.6%
[15]
  viability, T/C: 35%
[16]
  viability, T/C: 10.2%
[17]
  viability, T/C: 2.99%
Second compound 3.16 µM, first compound 0.000316 µM
  viability, T/C: 101%
Second compound 3.16 µM, first compound 0.001 µM
  viability, T/C: 70.5%
[18]
  viability, T/C: 65.7%
[19]
  viability, T/C: 32.3%
[20]
  viability, T/C: 12.6%
[21]
  viability, T/C: 3.14%
Second compound 10 µM, first compound 0.000316 µM
  viability, T/C: 81%
Second compound 10 µM, first compound 0.001 µM
  viability, T/C: 87%
[22]
  viability, T/C: 57.4%
[23]
  viability, T/C: 27.6%
[24]
  viability, T/C: 8.96%
[25]
  viability, T/C: 1.75%

## CCc1c2c(nc3ccc(O)cc13)-c1cc3c(c(=O)n1C2)COC(=O)[C@]3(O)CC + NC1CCC(NC2CC2c2ccccc2)CC1
[1]
  IC50: < 0.949 nM
[2]
  IC50: < 0.949 nM
[3]
  IC50: < 0.949 nM
[4]
  IC50: < 0.949 nM
[5]
  IC50: < 0.949 nM
[26]
  viability, T/C: 36.5%
[27]
  viability, T/C: 20.8%
[28]
  viability, T/C: 9.21%
[29]
  viability, T/C: 4.18%
[30]
  viability, T/C: 1.08%
[31]
  viability, T/C: 0.71%
[32]
  viability, T/C: 37%
[33]
  viability, T/C: 21.9%
[34]
  viability, T/C: 10.2%
[35]
  viability, T/C: 5.04%
[36]
  viability, T/C: 1.52%
[37]
  viability, T/C: 0.83%
[38]
  viability, T/C: 39.9%
[39]
  viability, T/C: 25.3%
[40]
  viability, T/C: 11.1%
[41]
  viability, T/C: 5.17%
[42]
  viability, T/C: 1.3%
[43]
  viability, T/C: 0.78%
[44]
  viability, T/C: 41.6%
[45]
  viability, T/C: 24.6%
[46]
  viability, T/C: 12.8%
[47]
  viability, T/C: 5.77%
[48]
  viability, T/C: 1.49%
[49]
  viability, T/C: 0.71%
[50]
  viability, T/C: 41%
[51]
  viability, T/C: 25.4%
[52]
  viability, T/C: 12.4%
[53]
  viability, T/C: 5.97%
[54]
  viability, T/C: 1.81%
[55]
  viability, T/C: 2.3%

## Nc1ncn(C2CC(O)C(CO)S2)c(=O)n1 (centres undefined) + NC1CC1c1ccc(-c2cccc(O)c2)cc1
[1]
  IC50: > 300 nM
[2]
  IC50: > 300 nM
[3]
  IC50: > 300 nM
[4]
  IC50: > 300 nM
[5]
  IC50: > 300 nM
[26]
  viability, T/C: 100%
[27]
  viability, T/C: 110%
[28]
  viability, T/C: 104%
[29]
  viability, T/C: 95%
[30]
  viability, T/C: 80.9%
[31]
  viability, T/C: 71.2%
[32]
  viability, T/C: 107%
[33]
  viability, T/C: 112%
[34]
  viability, T/C: 108%
[35]
  viability, T/C: 96.2%
[36]
  viability, T/C: 88.5%
[37]
  viability, T/C: 69.8%
[38]
  viability, T/C: 93.7%
[39]
  viability, T/C: 86.6%
[40]
  viability, T/C: 93.9%
[41]
  viability, T/C: 92.4%
[42]
  viability, T/C: 74.7%
[43]
  viability, T/C: 61.7%
[44]
  viability, T/C: 95.8%
[45]
  viability, T/C: 97.8%
[46]
  viability, T/C: 91.3%
[47]
  viability, T/C: 81.6%
[48]
  viability, T/C: 79.8%
[49]
  viability, T/C: 64.4%
[50]
  viability, T/C: 79%
[51]
  viability, T/C: 93.6%
[52]
  viability, T/C: 84.8%
[53]
  viability, T/C: 78.1%
[54]
  viability, T/C: 70%
[55]
  viability, T/C: 60%

## NS(=O)(=O)OCC1CC(n2ccc3c(NC4CCc5ccccc54)ncnc32)CC1O (centres undefined) + NC1CCC(NC2CC2c2ccccc2)CC1
[1]
  IC50: 202 nM
[2]
  IC50: 223 nM
[3]
  IC50: 221 nM
[4]
  IC50: 179 nM
[5]
  IC50: 152 nM
[28]
  viability, T/C: 122%
[29]
  viability, T/C: 118%
[30]
  viability, T/C: 76%
[31]
  viability, T/C: 36.6%
Second compound 0.1 µM, first compound 0.949 µM
  viability, T/C: 16.2%
Second compound 0.1 µM, first compound 3 µM
  viability, T/C: 9.81%
[34]
  viability, T/C: 139%
[35]
  viability, T/C: 126%
[36]
  viability, T/C: 84.8%
[37]
  viability, T/C: 38.4%
Second compound 0.316 µM, first compound 0.949 µM
  viability, T/C: 15.5%
Second compound 0.316 µM, first compound 3 µM
  viability, T/C: 10.6%
[40]
  viability, T/C: 108%
[41]
  viability, T/C: 98.6%
[42]
  viability, T/C: 80.8%
[43]
  viability, T/C: 38.2%
Second compound 1 µM, first compound 0.949 µM
  viability, T/C: 17.9%
Second compound 1 µM, first compound 3 µM
  viability, T/C: 10.7%
[46]
  viability, T/C: 98.8%
[47]
  viability, T/C: 105%
[48]
  viability, T/C: 69.2%
[49]
  viability, T/C: 33.5%
Second compound 3.16 µM, first compound 0.949 µM
  viability, T/C: 16.4%
Second compound 3.16 µM, first compound 3 µM
  viability, T/C: 9.81%
[52]
  viability, T/C: 101%
[53]
  viability, T/C: 79.3%
[54]
  viability, T/C: 64.7%
[55]
  viability, T/C: 34%
Second compound 10 µM, first compound 0.949 µM
  viability, T/C: 14.3%
Second compound 10 µM, first compound 3 µM
  viability, T/C: 8.62%

## CC1COCCN1c1cc(-c2ccnn2C)c2ccnc(-c3ccn[nH]3)c2n1 (centres undefined) + NC1CC1c1ccc(-c2cccc(O)c2)cc1
[1]
  IC50: 31.6 nM
[2]
  IC50: 33 nM
[3]
  IC50: 24.6 nM
[4]
  IC50: 25.2 nM
[5]
  IC50: 19.9 nM
[6]
  viability, T/C: 98.8%
[7]
  viability, T/C: 79.8%
[8]
  viability, T/C: 49%
[9]
  viability, T/C: 35.6%
Second compound 0.1 µM, first compound 0.316 µM
  viability, T/C: 31.7%
Second compound 0.1 µM, first compound 1 µM
  viability, T/C: 27.9%
[10]
  viability, T/C: 105%
[11]
  viability, T/C: 79.1%
[12]
  viability, T/C: 49.6%
[13]
  viability, T/C: 36.5%
Second compound 0.316 µM, first compound 0.316 µM
  viability, T/C: 30.4%
Second compound 0.316 µM, first compound 1 µM
  viability, T/C: 27.9%
[14]
  viability, T/C: 91.3%
[15]
  viability, T/C: 72.8%
[16]
  viability, T/C: 42.3%
[17]
  viability, T/C: 33.4%
Second compound 1 µM, first compound 0.316 µM
  viability, T/C: 27.3%
Second compound 1 µM, first compound 1 µM
  viability, T/C: 25.8%
[18]
  viability, T/C: 88.9%
[19]
  viability, T/C: 75.1%
[20]
  viability, T/C: 43%
[21]
  viability, T/C: 32.8%
Second compound 3.16 µM, first compound 0.316 µM
  viability, T/C: 31.1%
Second compound 3.16 µM, first compound 1 µM
  viability, T/C: 25.3%
[22]
  viability, T/C: 95.9%
[23]
  viability, T/C: 62.1%
[24]
  viability, T/C: 42.5%
[25]
  viability, T/C: 30.4%
Second compound 10 µM, first compound 0.316 µM
  viability, T/C: 31.3%
Second compound 10 µM, first compound 1 µM
  viability, T/C: 26%

## Nc1ncn(C2CC(O)C(CO)O2)c(=O)n1 (centres undefined)
Compound 0.00316 µM
  viability, T/C: 93.5% and 108%
Compound 0.01 µM
  viability, T/C: 94% and 87.9%
Compound 0.0316 µM
  viability, T/C: 88.2% and 75.7%
Compound 0.1 µM
  viability, T/C: 77.1% and 76.2%
Compound 0.316 µM
  viability, T/C: 72.5% and 69%
Compound 1 µM
  viability, T/C: 72.5% and 69.2%
Curve of compound
  IC50: > 1000 nM

## CC1COCCN1c1cc(-c2ccnn2C)c2ccnc(-c3ccn[nH]3)c2n1 (centres undefined)
Compound 0.00316 µM
  viability, T/C: 105% and 92.5%
Compound 0.01 µM
  viability, T/C: 86.5% and 81.7%
Compound 0.0316 µM
  viability, T/C: 58.9% and 50.4%
Compound 0.1 µM
  viability, T/C: 39.9% and 36.2%
Compound 0.316 µM
  viability, T/C: 34.4% and 32.6%
Compound 1 µM
  viability, T/C: 32.2% and 27%
Curve of compound
  IC50: 54.5 nM and 35.5 nM
